Measurements: ChEMBL document CHEMBL5715952 (Oncotarget, 2015)

Assays:
[1] = Inhibition of B-RAFV600E/pERK in bortezomib Resistant human RPMI-8226 cells assessed as reduction of cell growth incubated for 72 hrs by CellTiter 96 aqueous one solution cell proliferation assay; type: cell-based; details: Bortezomib-resistant RPMI-8226, 72 h
[2] = Inhibition of B-RAFV600E/pERK in human ANBL-6 cells assessed as reduction of cell growth incubated for 72 hrs by CellTiter 96 aqueous one solution cell proliferation assay; type: cell-based; details: ANBL-6, 72 h
[3] = Ratio of IC50 for inhibition of B-RAFV600E/pERK in human RPMI-8226 cells assessed as reduction of cell viability to IC50 for inhibition of B-RAFV600E/pERK in human RPMI-8226/BR resistant cells assessed as reduction of cell viability; details: condition multiple myeloma
[4] = Inhibition of B-RAFV600E/pERK in human U-266 cells assessed as reduction of cell growth incubated for 72 hrs by CellTiter 96 aqueous one solution cell proliferation assay; type: cell-based; details: U-266, 72 h
[5] = Inhibition of B-RAFV600E/pERK in human bortezomib-resistant ANBL6 cells assessed as reduction of cell growth incubated for 72 hrs by CellTiter 96 aqueous one solution cell proliferation assay; type: cell-based
[6] = Inhibition of B-RAFV600E/pERK in Melphalan Resistant human RPMI-8226 cells assessed as reduction of cell growth incubated for 72 hrs by CellTiter 96 aqueous one solution cell proliferation assay; type: cell-based; details: Melphalan-resistant RPMI-8226 cell
[7] = Ratio of IC50 for inhibition of B-RAFV600E/pERK in human ANBL6 cells assessed as reduction of cell viability to IC50 for inhibition of B-RAFV600E/pERK in human ANBL6/BR resistant cells assessed as reduction of cell viability; details: condition multiple myeloma
[8] = Inhibition of B-RAF-V600E/pERK in human RPMI-8226 cells assessed as reduction of cell growth incubated for 72 hrs by CellTiter 96 aqueous one solution cell proliferation assay; type: cell-based; details: RPMI-8226, 72 h
[9] = Ratio of IC50 for inhibition of B-RAFV600E/pERK in human RPMI-8226 cells assessed as reduction of cell viability to IC50 for inhibition of B-RAFV600E/pERK in human melphalan-resistant RPMI-8226 cells assessed as reduction of cell viability; details: time 72 hrs; condition multiple myeloma
[10] = Inhibition of c-KIT/VEGFR2/B-Raf/RET/PDGFR in Melphalan Resistant human RPMI-8226 cells assessed as reduction of cell growth incubated for 72 hrs by CellTiter 96 aqueous one solution cell proliferation assay; type: cell-based; details: Melphalan-resistant RPMI-8226 cell
[11] = Ratio of IC50 for inhibition of c-KIT/VEGFR1/B-Raf/RET/PDGFR in human RPMI-8226 cells assessed as reduction of cell viability to IC50 for inhibition of c-KIT/VEGFR1/B-Raf/RET/PDGFR in human RPMI-8226/BR resistant cells assessed as reduction of cell viability; details: condition multiple myeloma
[12] = Ratio of IC50 for inhibition of c-KIT/VEGFR2/B-Raf/RET/PDGFR in human ANBL6 cells assessed as reduction of cell viability to IC50 for inhibition of c-KIT/VEGFR2/B-Raf/RET/PDGFR in human ANBL6/BR resistant cells assessed as reduction of cell viability; details: condition multiple myeloma
[13] = Inhibition of c-KIT/VEGFR2/B-Raf/RET/PDGFR in human U-266 cells assessed as reduction of cell growth incubated for 72 hrs by CellTiter 96 aqueous one solution cell proliferation assay; type: cell-based; details: U-266, 72 h
[14] = Inhibition of c-KIT/VEGFR1/B-Raf/RET/PDGFR in human RPMI-8226 cells assessed as reduction of cell growth incubated for 72 hrs by CellTiter 96 aqueous one solution cell proliferation assay; type: cell-based; details: RPMI-8226, 72 h
[15] = Inhibition of c-KIT/VEGFR2/B-Raf/RET/PDGFR in human ANBL-6 cells assessed as reduction of cell growth incubated for 72 hrs by CellTiter 96 aqueous one solution cell proliferation assay; type: cell-based; details: ANBL-6, 72 h
[16] = Inhibition of c-KIT/VEGFR1/B-Raf/RET/PDGFR in human ANBL-6 cells assessed as reduction of cell growth incubated for 72 hrs by CellTiter 96 aqueous one solution cell proliferation assay; type: cell-based; details: ANBL-6, 72 h
[17] = Ratio of IC50 for inhibition of c-KIT/VEGFR2/B-Raf/RET/PDGFR in human RPMI-8226 cells assessed as reduction of cell viability to IC50 for inhibition of c-KIT/VEGFR2/B-Raf/RET/PDGFR in human RPMI-8226/BR resistant cells assessed as reduction of cell viability; details: condition multiple myeloma
[18] = Inhibition of c-KIT/VEGFR1/B-Raf/RET/PDGFR in human U-266 cells assessed as reduction of cell growth incubated for 72 hrs by CellTiter 96 aqueous one solution cell proliferation assay; type: cell-based; details: U-266, 72 h
[19] = Ratio of IC50 for inhibition of c-KIT/VEGFR1/B-Raf/RET/PDGFR in human RPMI-8226 cells assessed as reduction of cell viability to IC50 for inhibition of c-KIT/VEGFR1/B-Raf/RET/PDGFR in human melphalan-resistant RPMI-8226 cells assessed as reduction of cell viability; details: time 72 hrs; condition multiple myeloma
[20] = Inhibition of c-KIT/VEGFR2/B-Raf/RET/PDGFR in human bortezomib-resistant ANBL6 cells assessed as reduction of cell growth incubated for 72 hrs by CellTiter 96 aqueous one solution cell proliferation assay; type: cell-based
[21] = Inhibition of c-KIT/VEGFR1/B-Raf/RET/PDGFR in human bortezomib-resistant ANBL6 cells assessed as reduction of cell growth incubated for 72 hrs by CellTiter 96 aqueous one solution cell proliferation assay; type: cell-based
[22] = Inhibition of c-KIT/VEGFR1/B-Raf/RET/PDGFR in bortezomib Resistant human RPMI-8226 cells assessed as reduction of cell growth incubated for 72 hrs by CellTiter 96 aqueous one solution cell proliferation assay; type: cell-based; details: Bortezomib-resistant RPMI-8226, 72 h
[23] = Ratio of IC50 for inhibition of c-KIT/VEGFR1/B-Raf/RET/PDGFR in human ANBL6 cells assessed as reduction of cell viability to IC50 for inhibition of c-KIT/VEGFR1/B-Raf/RET/PDGFR in human ANBL6/BR resistant cells assessed as reduction of cell viability; details: condition multiple myeloma
[24] = Ratio of IC50 for inhibition of c-KIT/VEGFR2/B-Raf/RET/PDGFR in human RPMI-8226 cells assessed as reduction of cell viability to IC50 for inhibition of c-KIT/VEGFR2/B-Raf/RET/PDGFR in human melphalan-resistant RPMI-8226 cells assessed as reduction of cell viability; details: time 72 hrs; condition multiple myeloma
[25] = Inhibition of c-KIT/VEGFR1/B-Raf/RET/PDGFR in Melphalan Resistant human RPMI-8226 cells assessed as reduction of cell growth incubated for 72 hrs by CellTiter 96 aqueous one solution cell proliferation assay; type: cell-based; details: Melphalan-resistant RPMI-8226 cell
[26] = Inhibition of c-KIT/VEGFR2/B-Raf/RET/PDGFR in bortezomib Resistant human RPMI-8226 cells assessed as reduction of cell growth incubated for 72 hrs by CellTiter 96 aqueous one solution cell proliferation assay; type: cell-based; details: Bortezomib-resistant RPMI-8226, 72 h
[27] = Inhibition of c-KIT/VEGFR2/B-Raf/RET/PDGFR in human RPMI-8226 cells assessed as reduction of cell growth incubated for 72 hrs by CellTiter 96 aqueous one solution cell proliferation assay; type: cell-based; details: RPMI-8226, 72 h
[28] = Inhibition of CAMKK in human ANBL-6 cells assessed as reduction of cell growth incubated for 72 hrs by CellTiter 96 aqueous one solution cell proliferation assay; type: cell-based; details: ANBL-6, 72 h
[29] = Inhibition of CAMKK in bortezomib Resistant human RPMI-8226 cells assessed as reduction of cell growth incubated for 72 hrs by CellTiter 96 aqueous one solution cell proliferation assay; type: cell-based; details: Bortezomib-resistant RPMI-8226, 72 h
[30] = Inhibition of CAMKK in Melphalan Resistant human RPMI-8226 cells assessed as reduction of cell growth incubated for 72 hrs by CellTiter 96 aqueous one solution cell proliferation assay; type: cell-based; details: Melphalan-resistant RPMI-8226 cell
[31] = Ratio of IC50 for inhibition of CAMKK in human RPMI-8226 cells assessed as reduction of cell viability to IC50 for inhibition of CAMKK in human melphalan-resistant RPMI-8226 cells assessed as reduction of cell viability; details: time 72 hrs; condition multiple myeloma
[32] = Inhibition of CAMKK in human bortezomib-resistant ANBL6 cells assessed as reduction of cell growth incubated for 72 hrs by CellTiter 96 aqueous one solution cell proliferation assay; type: cell-based
[33] = Inhibition of CAMKK in human U-266 cells assessed as reduction of cell growth incubated for 72 hrs by CellTiter 96 aqueous one solution cell proliferation assay; type: cell-based; details: U-266, 72 h
[34] = Ratio of IC50 for inhibition of CAMKK in human ANBL6 cells assessed as reduction of cell viability to IC50 for inhibition of CAMKK in human ANBL6/BR resistant cells assessed as reduction of cell viability; details: condition multiple myeloma
[35] = Inhibition of CAMKK in human RPMI-8226 cells assessed as reduction of cell growth incubated for 72 hrs by CellTiter 96 aqueous one solution cell proliferation assay; type: cell-based; details: RPMI-8226, 72 h
[36] = Ratio of IC50 for inhibition of CAMKK in human RPMI-8226 cells assessed as reduction of cell viability to IC50 for inhibition of CAMKK in human RPMI-8226/BR resistant cells assessed as reduction of cell viability; details: condition multiple myeloma

SMILES: OCCn1cc(-c2ccc3c(c2)CC/C3=N\O)c(-c2ccncc2)n1
- IC50 [1]: 10 µM
- IC50 [2]: 10 µM
- Ratio IC50 [3]: 1
- IC50 [4]: 10 µM
- IC50 [5]: 10 µM
- IC50 [6]: 10 µM
- Ratio IC50 [7]: 1
- IC50 [8]: 10 µM
- Ratio IC50 [9]: 1

SMILES: CNC(=O)c1cc(Oc2ccc(NC(=O)Nc3ccc(Cl)c(C(F)(F)F)c3)c(F)c2)ccn1 [REGORAFENIB]
- IC50 [10]: 3.55 µM
- Ratio IC50 [11]: 2.45
- Ratio IC50 [12]: 1.48
- IC50 [13]: 10 µM
- IC50 [14]: 4.07 µM
- IC50 [15]: 9.12 µM
- IC50 [16]: 9.12 µM
- Ratio IC50 [17]: 2.45
- IC50 [18]: 10 µM
- Ratio IC50 [19]: 1.1
- IC50 [20]: 6.17 µM
- IC50 [21]: 6.17 µM
- IC50 [22]: 2.76 µM
- Ratio IC50 [23]: 1.48
- Ratio IC50 [24]: 1.1
- IC50 [25]: 3.55 µM
- IC50 [26]: 2.76 µM
- IC50 [27]: 4.07 µM

SMILES: O=C(O)c1ccc2c3c1cccc3c(=O)n1c3ccccc3nc21
- IC50 [28]: 10 µM
- IC50 [29]: 10 µM
- IC50 [30]: 10 µM
- Ratio IC50 [31]: 1
- IC50 [32]: 10 µM
- IC50 [33]: 10 µM
- Ratio IC50 [34]: 1
- IC50 [35]: 10 µM
- Ratio IC50 [36]: 1
